Counter-ions that a name gives are not always drawn. Activity calls are given as the source filed them.
Legend:
[1] = HepG2 cell cytotoxicity, dose response, cytotoxicity control for Shn3 inhibitor project, CellTiter-Glo, cherry-picked (AID 624134); type: functional, cell-based
[2] = tested on: HEK293; test: NOD2 signaling inhibitors in MDP-stimulated cells, cell-based, uHTS, luminescence (AID 2001); type: functional; settings: Homo sapiens
[3] = tested on: HEK293; test: cells; type: functional, cell-based; settings: Homo sapiens
[4] = control 3'UTR Renilla luciferase suppression, dose response, counter-screen for Shn3 inhibitor project, cell-based, Clone20-Shn3RL, cherry-picked (AID 624133); type: functional
[5] = tested on: HEK293; test: NOD1 signaling inhibitors, primary screen, cell-based, luminescence, uHTS (AID 1578); type: functional; settings: Homo sapiens
[6] = inhibitors of intracellular T. cruzi replication, confirmation, NIH3T3 host cells, beta-gal luminescence (AID 2044); type: functional, cell-based;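 note: intracellular parasites grown in NIH/3T3 mouse fibroblasts as host cells; luminescent beta-galactosidase reporter signal from transgenic T. cruzi replicating inside host cells; inhibitors lower the luminescence signal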
[7] = cytotoxicity toward NIH3T3 fibroblasts, dose response, counter-screen, cell-based, ATP luminescence, mouse fibroblasts (AID 2010); type: functional;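 note: cells exposed to compound for about 90 hours before reading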
[8] = cells
[9] = Shn3 3'UTR reporter inhibitors, dose response, cell-based, Clone20 osteoblasts, firefly luciferase, cherry-picked (AID 624132); type: functional;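 note: firefly luciferase luminescence from reporter carrying the Shn3 3'UTR in osteoblasts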
[10] = tested on: INS1; test: beta cell apoptosis inhibitors, cytokine rescue, dose response, luminescence, retest (AID 449756); type: functional, cell-based; settings: Rattus norvegicus;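 note: cell death triggered by IL-1 beta plus TNF-alpha plus IFN-gamma mixture; protective hits raise ATP signal compared with cytokine alone wells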
[11] = target: COUP transcription factor 2 (Homo sapiens, UniProt P24468); test: Luminescence-based cell-based high throughput dose response assay to identify inhibitors of COUP-TFII (NR2F2).; type: functional;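 note: HEK293 cells transiently cotransfected with COUP-TFII expression vector and reporter; luciferase reporter luminescence driven by COUP-TFII from the pX2-168 reporter plasmid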
COUP transcription factor 2, sequence (P24468 whole entry): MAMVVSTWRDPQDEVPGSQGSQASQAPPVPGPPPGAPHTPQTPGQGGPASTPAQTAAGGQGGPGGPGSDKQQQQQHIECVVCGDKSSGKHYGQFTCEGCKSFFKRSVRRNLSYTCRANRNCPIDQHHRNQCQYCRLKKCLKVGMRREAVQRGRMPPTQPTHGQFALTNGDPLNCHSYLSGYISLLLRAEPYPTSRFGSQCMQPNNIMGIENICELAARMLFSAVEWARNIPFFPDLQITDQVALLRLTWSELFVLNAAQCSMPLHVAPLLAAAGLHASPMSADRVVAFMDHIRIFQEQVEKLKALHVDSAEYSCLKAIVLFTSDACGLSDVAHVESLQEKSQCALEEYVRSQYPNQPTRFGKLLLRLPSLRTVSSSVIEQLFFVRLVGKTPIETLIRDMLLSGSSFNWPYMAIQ

[12] = cytotoxicity in HEK-293T cells, dose response, cytotoxicity control for TCR NF-kB inhibitor project, luminescence, T-cell screen hits (AID 489026); type: functional, cell-based;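 note: cells exposed to compound about 14 hours before the viability readout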
[13] = tested on: HEK293; test: cells; type: functional, cell-based; settings: Homo sapiens; remark: listed apart in the source
[14] = target: Transitional endoplasmic reticulum ATPase (Homo sapiens, UniProt P55072); test: Luminescence dose response biochemical high throughput screening assay for inhibitors of the p97 ATPase: synthesized compounds. [Related pubchem assays: 1481, 1517 ]
Transitional endoplasmic reticulum ATPase (Homo sapiens, UniProt P55072), sequence (P55072 whole entry): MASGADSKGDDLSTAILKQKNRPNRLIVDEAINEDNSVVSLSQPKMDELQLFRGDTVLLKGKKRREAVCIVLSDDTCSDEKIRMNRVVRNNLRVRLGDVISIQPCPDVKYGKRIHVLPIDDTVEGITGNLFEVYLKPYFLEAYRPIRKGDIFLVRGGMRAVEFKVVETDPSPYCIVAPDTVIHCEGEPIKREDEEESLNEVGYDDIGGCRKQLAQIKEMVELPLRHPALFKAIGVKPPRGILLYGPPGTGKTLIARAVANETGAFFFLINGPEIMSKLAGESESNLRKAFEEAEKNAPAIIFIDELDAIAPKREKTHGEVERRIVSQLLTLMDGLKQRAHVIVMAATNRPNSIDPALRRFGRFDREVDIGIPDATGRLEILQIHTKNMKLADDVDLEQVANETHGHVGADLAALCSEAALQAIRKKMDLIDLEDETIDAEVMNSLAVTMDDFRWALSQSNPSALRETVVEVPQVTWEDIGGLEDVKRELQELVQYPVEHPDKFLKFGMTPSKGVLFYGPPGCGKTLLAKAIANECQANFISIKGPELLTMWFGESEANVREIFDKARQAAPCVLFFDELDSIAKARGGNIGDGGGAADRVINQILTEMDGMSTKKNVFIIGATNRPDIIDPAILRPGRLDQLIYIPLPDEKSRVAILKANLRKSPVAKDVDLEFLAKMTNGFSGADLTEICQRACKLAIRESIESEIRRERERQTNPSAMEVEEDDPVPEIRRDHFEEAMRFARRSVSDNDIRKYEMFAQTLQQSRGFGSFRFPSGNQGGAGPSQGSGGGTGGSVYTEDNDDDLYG

[15] = target: Transitional endoplasmic reticulum ATPase (Homo sapiens, UniProt P55072, C522A); test: Luminescence counterscreen assay for p97 inhibitors: dose response biochemical high throughput screening assay to identify inhibitors of the C522A mutant p97 ATPase: synthesized compounds. [Related pubchem assays: 1481, 1517, 1551 ]
Transitional endoplasmic reticulum ATPase (Homo sapiens, UniProt P55072, C522A), sequence (P55072 2-806 C522A limits assumed): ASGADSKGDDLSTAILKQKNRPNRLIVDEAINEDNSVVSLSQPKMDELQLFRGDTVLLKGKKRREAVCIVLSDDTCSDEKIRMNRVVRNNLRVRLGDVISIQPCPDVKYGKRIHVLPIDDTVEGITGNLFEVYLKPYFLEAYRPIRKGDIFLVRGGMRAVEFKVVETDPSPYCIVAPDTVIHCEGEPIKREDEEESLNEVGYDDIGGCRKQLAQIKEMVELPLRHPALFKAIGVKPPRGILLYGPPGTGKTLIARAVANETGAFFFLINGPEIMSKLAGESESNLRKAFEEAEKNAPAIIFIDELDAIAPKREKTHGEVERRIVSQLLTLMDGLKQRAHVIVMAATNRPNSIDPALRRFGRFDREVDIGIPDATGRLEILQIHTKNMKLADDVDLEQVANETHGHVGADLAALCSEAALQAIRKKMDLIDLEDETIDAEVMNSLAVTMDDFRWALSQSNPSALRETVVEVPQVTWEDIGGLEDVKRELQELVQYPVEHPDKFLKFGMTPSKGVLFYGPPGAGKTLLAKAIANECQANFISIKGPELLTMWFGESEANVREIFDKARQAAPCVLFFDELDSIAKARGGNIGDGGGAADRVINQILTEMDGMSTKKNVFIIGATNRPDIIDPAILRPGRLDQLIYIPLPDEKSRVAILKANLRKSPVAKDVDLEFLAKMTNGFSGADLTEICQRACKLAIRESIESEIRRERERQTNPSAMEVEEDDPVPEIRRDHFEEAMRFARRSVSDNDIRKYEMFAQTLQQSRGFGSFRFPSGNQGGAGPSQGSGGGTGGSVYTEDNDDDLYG

[16] = target: T1, Bcl-2-like protein 10 (Homo sapiens, UniProt Q9HD36); test: Biochemical TR3 FP assay of Bcl-B inhibitor potency, EC50 (AID 1243); type: functional
T1 sequence (Q9HD36 whole entry): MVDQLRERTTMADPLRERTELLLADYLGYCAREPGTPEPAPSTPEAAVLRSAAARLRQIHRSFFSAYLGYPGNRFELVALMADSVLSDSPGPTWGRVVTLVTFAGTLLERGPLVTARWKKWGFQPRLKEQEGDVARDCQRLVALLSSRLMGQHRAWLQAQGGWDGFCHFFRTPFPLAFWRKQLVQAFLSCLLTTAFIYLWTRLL

[17] = target: Genome polyprotein (dengue virus type 2, UniProt P29990); test: Dengue-2 NS5 methyltransferase inhibitors, primary screen, biochemical, confirmation dose response (AID 588689); type: functional
Genome polyprotein, sequence (P29990 2492-3391 limits assumed): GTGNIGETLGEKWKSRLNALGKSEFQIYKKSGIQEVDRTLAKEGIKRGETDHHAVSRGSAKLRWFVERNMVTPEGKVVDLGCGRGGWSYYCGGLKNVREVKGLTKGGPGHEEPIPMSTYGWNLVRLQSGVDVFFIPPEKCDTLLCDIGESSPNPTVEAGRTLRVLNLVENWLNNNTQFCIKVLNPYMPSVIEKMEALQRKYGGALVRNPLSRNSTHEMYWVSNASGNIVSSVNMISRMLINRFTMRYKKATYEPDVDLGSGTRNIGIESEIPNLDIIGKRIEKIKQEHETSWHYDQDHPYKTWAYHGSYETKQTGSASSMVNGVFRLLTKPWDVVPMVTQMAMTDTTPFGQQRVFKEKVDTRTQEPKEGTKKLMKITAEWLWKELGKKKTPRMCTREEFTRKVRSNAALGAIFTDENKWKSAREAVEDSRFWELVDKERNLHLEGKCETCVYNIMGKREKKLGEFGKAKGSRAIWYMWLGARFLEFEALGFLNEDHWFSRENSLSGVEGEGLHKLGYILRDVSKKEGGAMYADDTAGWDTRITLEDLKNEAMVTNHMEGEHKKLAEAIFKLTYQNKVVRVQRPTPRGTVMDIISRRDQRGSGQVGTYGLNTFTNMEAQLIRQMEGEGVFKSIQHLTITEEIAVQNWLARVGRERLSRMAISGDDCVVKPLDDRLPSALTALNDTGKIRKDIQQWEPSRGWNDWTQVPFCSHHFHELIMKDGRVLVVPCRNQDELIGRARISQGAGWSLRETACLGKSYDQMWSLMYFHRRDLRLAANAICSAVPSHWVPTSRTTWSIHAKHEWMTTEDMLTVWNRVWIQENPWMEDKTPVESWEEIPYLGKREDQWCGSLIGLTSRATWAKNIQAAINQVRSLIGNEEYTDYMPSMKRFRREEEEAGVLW

[18] = target: NS3 (Hepatitis C virus, UniProt A3EZJ3); test: PubChem AID 2173; parameters: species or system Hepacivirus hominis
NS3, sequence (A3EZJ3 whole entry): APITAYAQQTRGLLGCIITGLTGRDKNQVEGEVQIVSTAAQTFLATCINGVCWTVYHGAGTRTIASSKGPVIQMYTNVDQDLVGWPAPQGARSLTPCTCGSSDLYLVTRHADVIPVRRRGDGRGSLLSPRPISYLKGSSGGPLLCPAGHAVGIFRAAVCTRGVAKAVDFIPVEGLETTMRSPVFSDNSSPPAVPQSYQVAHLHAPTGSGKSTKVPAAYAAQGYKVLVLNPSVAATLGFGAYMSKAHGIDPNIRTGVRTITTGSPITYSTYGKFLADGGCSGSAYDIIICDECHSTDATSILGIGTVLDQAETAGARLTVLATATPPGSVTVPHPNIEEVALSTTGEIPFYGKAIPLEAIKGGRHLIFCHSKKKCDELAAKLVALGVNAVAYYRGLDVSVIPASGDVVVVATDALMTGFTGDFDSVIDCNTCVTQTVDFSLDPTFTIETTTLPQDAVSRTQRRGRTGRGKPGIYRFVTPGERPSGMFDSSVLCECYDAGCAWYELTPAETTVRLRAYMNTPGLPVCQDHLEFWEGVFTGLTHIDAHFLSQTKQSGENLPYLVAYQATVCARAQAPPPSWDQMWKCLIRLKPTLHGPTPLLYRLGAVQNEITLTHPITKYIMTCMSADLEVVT

[19] = microbe, parasite or virus in culture; type: functional; settings: Mycobacterium tuberculosis
[20] = cytotoxicity in HPDE-C7 cells, cell-based, fluorescence, HTS (AID 430); type: functional; settings: Homo sapiens
[21] = cytotoxicity in KRAS-transformed pancreatic duct cells, primary screen, cell-based, fluorescence, HTS (AID 431); type: functional; settings: Homo sapiens;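 note: cell line used: HPDE-C7K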
[22] = cells; type: functional, cell-based
[23] = cells; type: functional, cell-based; remark: listed apart in the source
[24] = target: Albumin (Bos taurus, UniProt P02769); test: Counterscreen for inhibitors of T-cell receptor (TCR)-CD3 interaction: Fluorescence-based biochemical high throughput dose response assay to identify inhibitors of T-cell receptor (TCR)-CD3 interaction using a TAMRA-labeled BSA probe.; type: functional
[25] = human group III sPLA2 inhibitors, dose response, biochemical, QFRET, IC50 (AID 743457);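 note: green fluorescence rise as the enzyme cleaves BODIPY PC-A2 in liposomes; potency for inhibition of the enzyme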
[26] = Luminescence-based dose response cell-based high throughput screening assay for cytotoxic compounds using the IEC-6 intestinal epithelial cell line. [Related pubchem assays: 1858 (Summary AID.), 1825 (Counterscreen.), 1907 (Confirmation screen.)]; type: functional
[27] = cytotoxicity in OVCAR8 ovarian cancer cells, dose response, PAX8 project, cell-based, plate reader, dry powder samples (AID 743197); type: functional; settings: OVCAR-8
[28] = target: Paired box protein Pax-8 (Homo sapiens, UniProt Q06710); test: inhibitors of PAX8-driven TPO luciferase reporter, dose response, RMG-I cells, cherry-pick (AID 687027); type: functional, cell-based;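 note: luciferase reporter driven by Pax8 target thyroperoxidase promoter measured by SteadyGlo luminescence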
Paired box protein Pax-8, sequence (Q06710 whole entry): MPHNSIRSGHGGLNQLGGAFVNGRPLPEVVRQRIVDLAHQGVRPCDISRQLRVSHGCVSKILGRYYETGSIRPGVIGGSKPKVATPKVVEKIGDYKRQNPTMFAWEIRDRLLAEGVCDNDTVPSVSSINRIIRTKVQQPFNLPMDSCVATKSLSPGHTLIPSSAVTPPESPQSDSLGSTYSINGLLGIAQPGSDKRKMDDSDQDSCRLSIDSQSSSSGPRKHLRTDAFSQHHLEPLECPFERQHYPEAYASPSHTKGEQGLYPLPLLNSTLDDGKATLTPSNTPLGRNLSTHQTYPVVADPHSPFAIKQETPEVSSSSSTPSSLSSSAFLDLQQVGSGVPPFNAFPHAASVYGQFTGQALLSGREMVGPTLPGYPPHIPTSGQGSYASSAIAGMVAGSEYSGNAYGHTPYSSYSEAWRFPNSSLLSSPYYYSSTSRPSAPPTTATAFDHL

[29] = A549 cell cytotoxicity, dose response, CellTiter-Glo luminescence, dry powder, set 17 (AID 1117284); type: functional, cell-based
[30] = inhibitors of non-replicating M. tuberculosis, dose response, luciferase, dry powder (AID 651620); type: functional; settings: Mycobacterium tuberculosis
[31] = inhibitors of non-replicating M. tuberculosis, dose response, luciferase, dry powder (AID 651619); type: functional; settings: Mycobacterium tuberculosis
[32] = target: Nonstructural protein 1 (Influenza A virus, UniProt Q194T2); type: functional, Influenza A virus (A/California/07/2009(H1N1))
Nonstructural protein 1, sequence (Q194T2 whole entry): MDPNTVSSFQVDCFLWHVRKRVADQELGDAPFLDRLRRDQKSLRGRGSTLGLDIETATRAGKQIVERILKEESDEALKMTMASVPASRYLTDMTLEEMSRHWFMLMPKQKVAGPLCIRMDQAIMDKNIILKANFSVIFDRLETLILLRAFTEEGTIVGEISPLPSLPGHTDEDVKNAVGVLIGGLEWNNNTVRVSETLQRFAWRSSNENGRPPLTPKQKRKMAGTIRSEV

[33] = tested on: Streptococcus sp. 'group A'; test: growth inhibition of control SK(-) GAS strain, dose response, counter-screen for streptokinase expression inhibitor project, luminescence, kanamycin, BacTiterGlo, confirmation (AID 1900); type: functional, organism-based
[34] = tested on: Streptococcus; test: Group A Streptococcus viability loss, dose response, counter-screen for streptokinase expression inhibitor project, luminescence, BacTiterGlo (AID 1915); type: functional, organism-based;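 note: potency for reduction of bacterial viability or growth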
[35] = target: T2, Streptokinase A (Streptococcus pyogenes serotype M1, UniProt P10520); test: S. pyogenes streptokinase expression inhibitors, potency, dose response, plasminogen activation absorbance, OD405 (AID 1914); type: functional, Streptococcus pyogenes M1 GAS;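 note: secreted streptokinase activity via plasminogen activation per viability signal from cell pellet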
T2 sequence (P10520 whole entry): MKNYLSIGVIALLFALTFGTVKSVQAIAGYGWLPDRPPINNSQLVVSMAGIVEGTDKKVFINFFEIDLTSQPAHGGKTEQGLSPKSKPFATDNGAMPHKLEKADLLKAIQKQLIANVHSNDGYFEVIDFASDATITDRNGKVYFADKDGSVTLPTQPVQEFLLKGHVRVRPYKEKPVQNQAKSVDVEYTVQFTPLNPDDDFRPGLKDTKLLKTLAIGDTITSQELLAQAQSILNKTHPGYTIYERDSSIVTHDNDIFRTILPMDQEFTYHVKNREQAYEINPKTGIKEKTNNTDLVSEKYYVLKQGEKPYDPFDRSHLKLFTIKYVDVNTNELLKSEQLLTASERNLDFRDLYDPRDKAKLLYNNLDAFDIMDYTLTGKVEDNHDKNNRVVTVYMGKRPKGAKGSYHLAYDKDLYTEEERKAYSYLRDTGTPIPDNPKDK

[36] = P. falciparum Dd2 growth inhibitors, dose response, SYBR Green, dry powder samples (AID 1159566); type: functional, cell-based;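 note: potency for growth inhibition with lower SYBR green DNA signal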
[37] = HepG2 cell cytotoxicity, dose response, cytotoxicity control, plate reader, dry powder samples (AID 1159569); type: functional, cell-based;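 note: inhibitor potency with signal falling toward the positive control level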
[38] = P. falciparum Dd2 growth inhibitors, dose response, SYBR Green, cherry-picked samples (AID 1159567); type: functional, cell-based
[39] = P. falciparum 3D7-ScDHODH growth inhibitors, dose response, SYBR Green, dry powder samples (AID 1159570); type: functional, cell-based;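 note: parasite growth measured after 72 hours of compound exposure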
[40] = P. falciparum ATP4 D1247Y mutant growth inhibitors, dose response, NITD609-resistant line, SYBR Green, dry powder (AID 1159571); type: functional, cell-based;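 note: parasites synchronized at ring stage by sorbitol before testing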
[41] = target: Cytochrome P450 2C19 (Homo sapiens, UniProt P33261); test: Cytochrome panel assay with activity outcomes. Panel member name: p450-cyp2c19 Compounds with AC50 equal or less than 10 uM are considered active; type: functional; settings: read-out: AC50
Cytochrome P450 2C19, sequence (P33261 whole entry): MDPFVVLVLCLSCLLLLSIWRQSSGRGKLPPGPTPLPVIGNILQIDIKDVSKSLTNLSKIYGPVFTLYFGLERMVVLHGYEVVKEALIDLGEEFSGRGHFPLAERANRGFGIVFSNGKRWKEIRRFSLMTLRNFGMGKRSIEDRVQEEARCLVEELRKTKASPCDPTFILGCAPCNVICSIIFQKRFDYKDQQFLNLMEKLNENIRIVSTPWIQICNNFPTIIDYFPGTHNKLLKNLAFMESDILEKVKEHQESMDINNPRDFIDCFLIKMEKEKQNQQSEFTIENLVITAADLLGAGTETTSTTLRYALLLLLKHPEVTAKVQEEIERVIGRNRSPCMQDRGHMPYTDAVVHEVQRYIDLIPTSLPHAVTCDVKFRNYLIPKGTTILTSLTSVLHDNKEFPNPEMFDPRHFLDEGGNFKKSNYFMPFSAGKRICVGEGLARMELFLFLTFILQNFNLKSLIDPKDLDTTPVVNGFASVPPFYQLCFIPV

[42] = cells; type: functional, cell-based; settings: INS-1E
[43] = Dose-response inhibition of insulin secretion in a rat insulinoma line at 5 mM glucose (AID 1117331); type: functional, cell-based; settings: INS-1E
[44] = target: T3, Cytochrome P450 1A2 (Homo sapiens, UniProt P05177);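 note: PubChem cytochrome P450 panel assay, CYP1A2 panel member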
T3 sequence (P05177 whole entry): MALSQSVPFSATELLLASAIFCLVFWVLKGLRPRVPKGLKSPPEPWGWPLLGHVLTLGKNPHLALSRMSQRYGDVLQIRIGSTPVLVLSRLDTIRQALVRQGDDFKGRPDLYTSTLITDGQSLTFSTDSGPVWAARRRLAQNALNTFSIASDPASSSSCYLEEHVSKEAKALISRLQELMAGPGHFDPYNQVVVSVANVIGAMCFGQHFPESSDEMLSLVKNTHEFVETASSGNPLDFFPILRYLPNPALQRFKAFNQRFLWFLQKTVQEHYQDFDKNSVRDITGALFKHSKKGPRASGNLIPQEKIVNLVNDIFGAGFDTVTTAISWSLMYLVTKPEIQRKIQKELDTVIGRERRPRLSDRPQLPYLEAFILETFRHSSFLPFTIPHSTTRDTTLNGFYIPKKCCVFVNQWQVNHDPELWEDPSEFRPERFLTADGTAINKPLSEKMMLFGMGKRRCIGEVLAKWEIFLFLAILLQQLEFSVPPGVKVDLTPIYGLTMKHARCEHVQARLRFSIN

## COc1ccc(C2=Nn3c([n+](C)c4ccccc43)SC2)cc1
[1]
  AC50: > 70 µM (inactive)
[2]
  IC50: 13 µM (inactive)
[3]
  IC50: 12.2 µM (active)
[4]
  AC50: 3.2 µM (active)
[5]
  EC50: 11.1 µM (active)
[6]
  EC50: < 0.1 µM (active)
[7]
  EC50: > 60 µM (not active)
[8]
  EC50: 0.087 µM (active)
[9]
  AC50: 1.16 µM (active)
[10]
  AC50: 1.54 µM (active)
[11]
  IC50: 5.66 µM (active)
[12]
  IC50: > 80 µM (inactive)
[13]
  IC50: > 20 µM (inactive)

## CCOC(=O)/C(C#N)=C/c1ccc(F)cc1[N+](=O)[O-]
[14]
  IC50: > 50 µM (not active)
[15]
  IC50: > 50 µM (not active)

## Cc1cc(-c2csc(Nc3ccc(C#N)cc3)n2)c(C)n1CCc1ccccc1
[14]
  IC50: > 50 µM (not active)
[15]
  IC50: > 50 µM (not active)

## COc1cc(N)ccc1-n1c(C)ccc1C
[16]
  EC50: 32.9 µM (active)

## Cc1cc(N2C(=O)C(O)=C(C(=O)c3ccco3)C2c2cccc(Oc3ccccc3)c2)no1 (centres undefined)
[17]
  IC50: 64.6 µM (active)
[18]
  IC50: 2.64 µM (active)

## Cc1oc(C(=O)Nc2ccc(O)cc2)cc1COc1ccccc1
[19]
  CC50: > 40 µM (active)
[20]
  EC50: 16.6 µM (active)
[21]
  EC50: 13.9 µM (active)

## CC1=C(C#N)c2nc(N)c(C#N)c(C)c2/C1=C/c1ccc(-c2ccc(C(=O)O)c(Cl)c2)o1
[16]
  EC50: 1.65 µM (active)

## C/C(=N\NC(=O)c1nnn(-c2nonc2N)c1-c1ccccc1)c1ccccc1O
[6]
  EC50: 0.617 µM (active)
[7]
  EC50: 3.76 µM (active)
[22]
  EC50: 113 µM (active)
[10]
  AC50: 0.353 µM (active)
[23]
  EC50: 58.5 µM (active)
[24]
  IC50: > 94.1 µM (inactive)
[25]
  IC50: > 122 µM (inactive)
[26]
  IC50: 1.19 µM (active)

## C[C@@H]1CN([C@@H](C)CO)S(=O)(=O)c2ccc(C#C[C@@H](C)O)cc2O[C@@H]1CN(C)Cc1ccc(-c2ccccc2)cc1
[27]
  AC50: > 70 µM (inactive)
[28]
  AC50: 12.3 µM (active)
[29]
  AC50: > 52 µM (inactive)

## COc1ccc(CSc2nnc(-c3ccc(Cl)cc3)o2)nc1
[30]
  IC90: 2 µM (active)
[31]
  IC90: 2 µM (active)

## COc1ccc(/C=N\NC(=O)c2cc(O)c(O)c(O)c2)cc1COc1ccc(C(=O)OCC(C)C)cc1
[32]
  IC50: 78.6 µM (active)
[33]
  EC50: 6.26 µM (active)
[34]
  EC50: 6.69 µM (active)
[18]
  IC50: 4.44 µM (active)
[35]
  EC50: > 150 µM (not active)

## COc1cccc(NC(=O)N2[C@@H](CO)[C@H](c3ccccc3)[C@@H]2CNCC(C)C)c1
[36]
  AC50: 0.852 µM (active)
[37]
  AC50: 95.4 µM (active)
[38]
  AC50: 2.02 µM (active)
[39]
  AC50: 1.46 µM (active)
[40]
  AC50: 1.66 µM (active)

## COc1ccccc1-c1ccc(CN(C)C[C@@H]2Oc3cc(C#C[C@@H](C)O)ccc3S(=O)(=O)N([C@@H](C)CO)C[C@@H]2C)cc1
[29]
  AC50: > 52 µM (inactive)

## CN(C)C(=O)c1ccc(-c2cccc(-c3nc(C(=O)NC4CCCC4)cc4c3[C@H](CCO)N([S@@+]([O-])C(C)(C)C)C4)c2)cc1
[36]
  AC50: 0.768 µM (active)
[37]
  AC50: 30.5 µM (active)
[38]
  AC50: 1.99 µM (active)
[39]
  AC50: 1.14 µM (active)
[40]
  AC50: 1.03 µM (active)

## N=C(N)NCCC[C@H](N)C(=O)O [ARGININE]
[41]
  AC50: 10 µM (inconclusive)
[42]
  IC50: > 33.3 µM (inactive)
[43]
  IC50: > 33.3 µM (inactive)
[44]
  AC50: 31.6 µM (inconclusive)

## CN(C)CCOC(c1ccc(Cl)cc1)c1ccccn1 (centres undefined) [CARBINOXAMINE MALEATE]
[42]
  IC50: > 33.3 µM (inactive)
[43]
  IC50: 21.4 µM (inactive)

Source: ChEMBL document CHEMBL1201862, “PubChem BioAssay data set” (2004)
